Data published in PubChem BioAssay AID256 (DTP/NCI, 2004).
Where “and” joins values, the source holds several entries; their conditions need not be identical. Identical values can stand only once. Toxic doses and inconclusive results are not listed. The calls were made as follows: active = survival T/C of 150% or more; inactive = T/C below 125% in these data.

System: CD2F1 mice, L1210 leukemia ip, survival T/C
Experiment: NCI In Vivo Anticancer Drug Screen. Data for tumor model L1210 Leukemia (intraperitoneal) in CD2F1 (CDF1) mice
Details: higher = longer survival
Outline: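 Activity against a transplanted murine tumor was judged by comparing the compound group with a vehicle group. The outcome in the treated animals was divided by that in the controls.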

[1] = endpoint: mean survival time, dose: 12.5 mg/kg/injection, schedule: Q01DX009 (ip), vehicle: water
[2] = endpoint: mean survival time, dose: 25.0 mg/kg/injection, schedule: Q01DX009 (ip), vehicle: water
[3] = endpoint: mean survival time, dose: 50.0 mg/kg/injection, schedule: Q01DX009 (ip), vehicle: water
[4] = endpoint: mean survival time, dose: 100.0 mg/kg/injection, schedule: Q01DX009 (ip), vehicle: water
[5] = endpoint: mean survival time, dose: 100.0 mg/kg/injection, schedule: Q04DX003 (ip), vehicle: saline
[6] = endpoint: mean survival time, dose: 100.0 mg/kg/injection, schedule: Q04DX003 (ip), vehicle: saline with Tween-80
[7] = endpoint: mean survival time, dose: 200.0 mg/kg/injection, schedule: Q04DX003 (ip), vehicle: saline with Tween-80
[8] = endpoint: mean survival time, dose: 400.0 mg/kg/injection, schedule: Q04DX003 (ip), vehicle: saline with Tween-80
[9] = endpoint: mean survival time, dose: 50.0 mg/kg/injection, schedule: Q01DX009 (ip), vehicle: saline with Tween-80
[10] = endpoint: mean survival time, dose: 200.0 mg/kg/injection, schedule: Q01DX009 (ip), vehicle: saline with Tween-80
[11] = endpoint: mean survival time, dose: 100.0 mg/kg/injection, schedule: Q01DX009 (ip), vehicle: saline with Tween-80
[12] = endpoint: mean survival time, dose: 400.0 mg/kg/injection, schedule: Q01DX009 (ip), vehicle: saline with Tween-80

Measured: T/C

CC[C@]1(O)C[C@H]2CN(CCc3c([nH]c4ccccc34)[C@@](C(=O)OC)(c3cc4c(cc3OC)N(C=O)[C@H]3[C@@](O)(C(=O)OC)[C@H](OC(C)=O)[C@]5(CC)C=CCN6CC[C@]43[C@@H]65)C2)C1
inactive: endpoint: mean survival time, dose: 0.08 mg/kg/injection, schedule: Q01DX009 (ip), vehicle: water 121 % of control | endpoint: mean survival time, dose: 0.13 mg/kg/injection, schedule: Q01DX009 (ip), vehicle: water 122 % of control | endpoint: mean survival time, dose: 0.2 mg/kg/injection, schedule: Q04DX003 (ip), vehicle: saline 115 % of control | endpoint: mean survival time, dose: 0.2 mg/kg/injection, schedule: Q04DX003 (ip), vehicle: water 106 % of control | endpoint: mean survival time, dose: 0.23 mg/kg/injection, schedule: Q04DX003 (ip), vehicle: water 121 % of control and 98 % of control | endpoint: mean survival time, dose: 0.36 mg/kg/injection, schedule: Q01DX009 (ip), vehicle: water 104 % of control | endpoint: mean survival time, dose: 0.39 mg/kg/injection, schedule: Q04DX003 (ip), vehicle: water 118 % of control and 108 % of control | endpoint: mean survival time, dose: 0.4 mg/kg/injection, schedule: Q04DX003 (ip), vehicle: water 106 % of control and 112 % of control | endpoint: mean survival time, dose: 0.5 mg/kg/injection, schedule: Q01DX009 (ip), vehicle: saline 102 % of control | endpoint: mean survival time, dose: 0.5 mg/kg/injection, schedule: Q04DX004 (ip), vehicle: saline 117 % of control and 120 % of control and 112 % of control | endpoint: mean survival time, dose: 0.65 mg/kg/injection, schedule: Q04DX003 (ip), vehicle: water 112 % of control | endpoint: mean survival time, dose: 0.8 mg/kg/injection, schedule: Q04DX003 (ip), vehicle: water 103 % of control and 110 % of control | endpoint: mean survival time, dose: 1.0 mg/kg/injection, schedule: Q01DX009 (ip), vehicle: saline 68 % of control and 73 % of control | endpoint: mean survival time, dose: 1.0 mg/kg/injection, schedule: Q04DX004 (ip), vehicle: saline 119 % of control | endpoint: mean survival time, dose: 1.08 mg/kg/injection, schedule: Q04DX003 (ip), vehicle: water 118 % of control | endpoint: mean survival time, dose: 1.5 mg/kg/injection, schedule: Q04DX003 (ip), vehicle: saline 121 % of control | endpoint: mean survival time, dose: 1.5 mg/kg/injection, schedule: Q04DX004 (ip), vehicle: saline 119 % of control | endpoint: mean survival time, dose: 1.6 mg/kg/injection, schedule: Q04DX003 (ip), vehicle: saline 120 % of control | endpoint: mean survival time, dose: 1.6 mg/kg/injection, schedule: Q04DX003 (ip), vehicle: water 117 % of control and 108 % of control | endpoint: mean survival time, dose: 78.0 micrograms/kg/injection, schedule: Q01DX009 (ip), vehicle: water 102 % of control | endpoint: mean survival time, dose: 130.0 micrograms/kg/injection, schedule: Q01DX009 (ip), vehicle: water 108 % of control | endpoint: mean survival time, dose: 216.0 micrograms/kg/injection, schedule: Q01DX009 (ip), vehicle: water 114 % of control | endpoint: mean survival time, dose: 360.0 micrograms/kg/injection, schedule: Q01DX009 (ip), vehicle: water 124 % of control | endpoint: median survival time, dose: 62.5 micrograms/kg/injection, schedule: Q01DX009 (ip), vehicle: water 115 % of control | endpoint: median survival time, dose: 125.0 micrograms/kg/injection, schedule: Q01DX009 (ip), vehicle: water 121 % of control | endpoint: median survival time, dose: 1000.0 micrograms/kg/injection, schedule: Q01DX009 (ip), vehicle: water 95 % of control

CNNCc1ccc(/C=N/NC(N)=S)cc1
inactive: endpoint: mean survival time, dose: 6.25 mg/kg/injection, schedule: Q01DX009 (ip), vehicle: water 96 % of control | [1] 98 % of control | [2] 100 % of control | [3] 86 % of control and 96 % of control | [4] 86 % of control and 96 % of control

COc1cc2c(cc1Oc1c(O)c(OC)cc3c1C(C)N(C)CC3)C(C)N(C)CC2 (stereo not drawn)
inactive: endpoint: mean survival time, dose: 75.0 mg/kg/injection, schedule: Q01DX001 (ip), vehicle: saline 101 % of control

COc1ccc(CC(=O)NC(C)Cc2ccc(OC)c(OC)c2)cc1OC (stereo not drawn)
inactive: [1] 91 % of control | [2] 89 % of control | [3] 95 % of control | [4] 94 % of control | endpoint: mean survival time, dose: 200.0 mg/kg/injection, schedule: Q01DX009 (ip), vehicle: water 91 % of control

COc1cc2c(cc1OC)C(C)=NCC2
inactive: [5] 104 % of control

FC(F)(F)c1cccc([PH+](c2cccc(C(F)(F)F)c2)c2cccc(C(F)(F)F)c2)c1.FC(F)(F)c1cccc([PH+](c2cccc(C(F)(F)F)c2)c2cccc(C(F)(F)F)c2)c1.[Cl][Hg][Cl]
inactive: endpoint: mean survival time, dose: 12.5 mg/kg/injection, schedule: Q01DX009 (ip), vehicle: Klucel (hydroxypropylcellulose) (HPC) 101 % of control | endpoint: mean survival time, dose: 25.0 mg/kg/injection, schedule: Q01DX009 (ip), vehicle: Klucel (hydroxypropylcellulose) (HPC) 108 % of control | endpoint: mean survival time, dose: 50.0 mg/kg/injection, schedule: Q01DX009 (ip), vehicle: Klucel (hydroxypropylcellulose) (HPC) 89 % of control

CC(=O)Cc1ccc(C)cc1
inactive: [6] 97 % of control | [7] 93 % of control | [8] 104 % of control

CCCOC(C(=O)OC1CCN(C)CC1)(c1ccccc1)c1ccccc1
inactive: endpoint: mean survival time, dose: 12.5 mg/kg/injection, schedule: Q04DX003 (ip), vehicle: saline 108 % of control | endpoint: mean survival time, dose: 25.0 mg/kg/injection, schedule: Q04DX003 (ip), vehicle: saline 102 % of control | endpoint: mean survival time, dose: 50.0 mg/kg/injection, schedule: Q04DX003 (ip), vehicle: saline 97 % of control

Nc1ccc(CC(=O)Nc2ccc(S(=O)(=O)F)cc2)cc1
inactive: endpoint: mean survival time, dose: 100.0 mg/kg/injection, schedule: Q01DX001 (ip), vehicle: saline 102 % of control | endpoint: mean survival time, dose: 200.0 mg/kg/injection, schedule: Q01DX001 (ip), vehicle: saline 103 % of control | endpoint: mean survival time, dose: 400.0 mg/kg/injection, schedule: Q01DX001 (ip), vehicle: saline 105 % of control

CN(C)N=Nc1c(F)cc(F)cc1F
inactive: endpoint: mean survival time, dose: 25.0 mg/kg/injection, schedule: Q01DX009 (ip), vehicle: saline with Tween-80 98 % of control | [9] 102 % of control | [10] 90 % of control

Cc1cc(C)nc(C)c1.[Cl-].[Cl-].[Cl-].[Cl-].[Pt+2]
inactive: endpoint: mean survival time, dose: 25.0 mg/kg/injection, schedule: Q04DX003 (ip), vehicle: saline with Tween-80 98 % of control | endpoint: mean survival time, dose: 50.0 mg/kg/injection, schedule: Q04DX003 (ip), vehicle: saline with Tween-80 101 % of control | [6] 103 % of control

N#CCC(=O)NN
inactive: [5] 103 % of control | endpoint: mean survival time, dose: 200.0 mg/kg/injection, schedule: Q04DX003 (ip), vehicle: saline 108 % of control

C[SeH]C.C[SeH]C.O.O=S(=O)(O)O.[Pt]
inactive: endpoint: mean survival time, dose: 12.5 mg/kg/injection, schedule: Q04DX003 (ip), vehicle: other 89 % of control | endpoint: mean survival time, dose: 25.0 mg/kg/injection, schedule: Q04DX003 (ip), vehicle: other 101 % of control | endpoint: mean survival time, dose: 50.0 mg/kg/injection, schedule: Q04DX003 (ip), vehicle: other 103 % of control | endpoint: mean survival time, dose: 100.0 mg/kg/injection, schedule: Q04DX003 (ip), vehicle: other 107 % of control

[C-]#[N+]CCS(=O)(=O)CC[N+]#[C-]
inactive: [11] 94 % of control | [6] 102 % of control | [10] 94 % of control | [7] 102 % of control | [12] 100 % of control | [8] 89 % of control

N=C(CN1CCCCC1)N1CCCCC1
inactive: endpoint: mean survival time, dose: 25.0 mg/kg/injection, schedule: Q04DX002 (ip), vehicle: saline 104 % of control | endpoint: mean survival time, dose: 50.0 mg/kg/injection, schedule: Q04DX002 (ip), vehicle: saline 101 % of control | endpoint: mean survival time, dose: 100.0 mg/kg/injection, schedule: Q04DX002 (ip), vehicle: saline 112 % of control

O=C(c1ccccc1)C(Br)C(Br)c1ccc([N+](=O)[O-])cc1 (stereo not drawn)
inactive: endpoint: mean survival time, dose: 100.0 mg/kg/injection, schedule: Q04DX002 (ip), vehicle: saline with Tween-80 89 % of control | endpoint: mean survival time, dose: 200.0 mg/kg/injection, schedule: Q04DX002 (ip), vehicle: saline with Tween-80 101 % of control | endpoint: mean survival time, dose: 400.0 mg/kg/injection, schedule: Q04DX002 (ip), vehicle: saline with Tween-80 101 % of control

Nc1ccc(C(=O)O)c([N+](=O)[O-])c1
inactive: endpoint: mean survival time, dose: 100.0 mg/kg/injection, schedule: Q01DX001 (ip), vehicle: Klucel (hydroxypropylcellulose) (HPC) 96 % of control | endpoint: mean survival time, dose: 200.0 mg/kg/injection, schedule: Q01DX001 (ip), vehicle: Klucel (hydroxypropylcellulose) (HPC) 100 % of control | endpoint: mean survival time, dose: 400.0 mg/kg/injection, schedule: Q01DX001 (ip), vehicle: Klucel (hydroxypropylcellulose) (HPC) 100 % of control

O=C(O)CCC(=O)c1ccccc1
inactive: [9] 101 % of control | [11] 106 % of control | [10] 106 % of control

O=S(=O)(Cc1ccccc1)Cc1ccccc1
inactive: [11] 101 % of control | [6] 103 % of control | [10] 98 % of control | [7] 103 % of control | [12] 96 % of control | [8] 102 % of control

Cc1cccc(C)c1NC(=O)c1ccccc1O
inactive: [11] 98 % of control | [6] 101 % of control | [10] 97 % of control | [7] 96 % of control | [12] 100 % of control | [8] 102 % of control

OC(Cc1nc(-c2ccccc2)c(-c2ccccc2)s1)(C(F)(F)F)C(F)(F)F
inactive: [11] 95 % of control | [6] 91 % of control | [10] 101 % of control | [7] 95 % of control | [12] 86 % of control | [8] 89 % of control
